Reference: patent publication US20250282768A1 (Janssen Pharmaceutica NV, priority 2022, published 2025)

Tested on: p-IKKa levels in L363 (NIK translocated multiple myeloma) cells
Assay: Assay 2: Effect of compounds on p-IKKa levels in L363 (NIK translocated multiple myeloma) cells
Format: cell-based
Details: Homo sapiens, L-363, 6 h, read-out: Assay 2 IC50 (nM), p-IKKa (Ser 176/180) in BAFF stimulated L363 cells with MG132, 6 h; average if tested more than once
In short: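 Read-out is p-IKKa Ser176/180 by AlphaLISA SureFire in lysates. Cells were BAFF-primed (250 ng/ml) overnight or left unstimulated, then exposed 6 h at 37 °C to compound with MG132 (10 μM), 0.3% DMSO. IC50 from sigmoidal curve fit, normalized between stimulated and unstimulated controls.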

For CN1CC[C@@](O)(c2cc(-c3cccc(-c4ccnc(Nc5nnc(C6CC6)o5)n4)n3)no2)C1=O [Example 304, (R)-3-(3-(6-(2-((5-Cyclopropyl-1,3,4-oxadiazol-2-yl)amino)pyrimidin-4-yl)pyridin-2-yl)isoxazol-5-yl)-3-hydroxy-1-methylpyrrolidin-2-one], the IC50 was 50 to 500 nM.
Work on CN1CC[C@@](O)(c2cc(-c3cccc(-c4ccnc(NC5(c6cnn(C)c6)CC5)n4)n3)no2)C1=O [Example 45, (R)-3-Hydroxy-1-methyl-3-(3-(6-(2-((1-(1-methyl-1H-pyrazol-4-yl)cyclopropyl)amino)pyrimidin-4-yl)pyridin-2-yl)isoxazol-5-yl)pyrrolidin-2-one] yielded an IC50 of over 500 nM.
C[C@@H](Nc1nccc(-c2cccc(-c3cc([C@]4(O)CCN(C)C4=O)on3)n2)n1)c1cn[nH]c1 (single isomer, unassigned) [Example 148] showed an IC50 of under 50 nM.
Compound CN1CC[C@@](O)(c2cc(-c3cccc(-c4ccnc(Nc5ncc(CO)cn5)n4)n3)no2)C1=O [Example 316, (R)-3-Hydroxy-3-(3-(6-(2-((5-(hydroxymethyl)pyrimidin-2-yl)amino)pyrimidin-4-yl)pyridin-2-yl)isoxazol-5-yl)-1-methylpyrrolidin-2-one] has an IC50 of over 500 nM.
In the case of COCn1ncc(Nc2nccc(-c3cccc(-c4cc([C@]5(O)CCN(C)C5=O)no4)n3)n2)n1 [Example 135, (R)-3-Hydroxy-3-(5-(6-(2-((2-(methoxymethyl)-2H-1,2,3-triazol-4-yl)amino)pyrimidin-4-yl)pyridin-2-yl)isoxazol-3-yl)-1-methylpyrrolidin-2-one], the IC50 is reported as under 50 nM.
For CN1CC[C@@](O)(c2cc(-c3cccc(-c4ccnc(N[C@@H]5CCOC5)n4)n3)no2)C1=O [Example 460, (R)-3-Hydroxy-1-methyl-3-(3-(6-(2-(((R)-tetrahydrofuran-3-yl)amino)pyrimidin-4-yl)pyridin-2-yl)isoxazol-5-yl)pyrrolidin-2-one], the IC50 was 50 to 500 nM.
CN1CC[C@@](O)(c2cc(-c3cccc(-c4ccnc(Nc5cnn6cccnc56)n4)n3)no2)C1=O [Example 38, (R)-3-Hydroxy-1-methyl-3-(3-(6-(2-(pyrazolo[1,5-a]pyrimidin-3-ylamino)pyrimidin-4-yl)pyridin-2-yl)isoxazol-5-yl)pyrrolidin-2-one] showed an IC50 of under 50 nM.
C[C@H](Nc1nccc(-c2cccc(-c3cc([C@]4(O)CCN(C)C4=O)on3)n2)n1)c1ccn(C)n1 (single isomer, unassigned) [Example 405, (R)-3-hydroxy-1-methyl-3-(3-(6-(2-(((*S)-1-(1-methyl-1H-pyrazol-3-yl)ethyl)amino)pyrimidin-4-yl)pyridin-2-yl)isoxazol-5-yl)pyrrolidin-2-one] gave an IC50 of 50 to 500 nM.
With CN(C)CCn1ccc(Nc2nccc(-c3cccc(-c4cc([C@]5(O)CCN(C)C5=O)on4)n3)n2)n1 [Example 126, (R)-3-(3-(6-(2-((1-(2-(Dimethylamino)ethyl)-1H-pyrazol-3-yl)amino)pyrimidin-4-yl)pyridin-2-yl)isoxazol-5-yl)-3-hydroxy-1-methylpyrrolidin-2-one] the IC50 was under 50 nM.
For CN1CC(F)(F)[C@@](O)(c2cc(-c3cccc(-c4ccnc(Nc5cnn(C)c5Cl)n4)n3)no2)C1=O [Example 409], the IC50 was under 50 nM.
For CN1CC[C@@](O)(c2cn(-c3cc(C(F)F)cc(-c4ccnc(Nc5cnn(C)c5)n4)n3)nn2)C1=O [Example 137, (R)-3-(1-(4-(Difluoromethyl)-6-(2-((1-methyl-1H-pyrazol-4-yl)amino)pyrimidin-4-yl)pyridin-2-yl)-1H-1,2,3-triazol-4-yl)-3-hydroxy-1-methylpyrrolidin-2-one], the IC50 was under 50 nM.
In the case of CN1CC[C@@](O)(c2cc(-c3cccc(-c4ccnc(NCCn5ccc(N)n5)n4)n3)no2)C1=O [Example 123, (R)-3-(3-(6-(2-((2-(3-Amino-1H-pyrazol-1-yl)ethyl)amino)pyrimidin-4-yl)pyridin-2-yl)isoxazol-5-yl)-3-hydroxy-1-methylpyrrolidin-2-one], the IC50 is reported as over 500 nM.
Cc1nn(C(F)F)cc1Nc1nccc(-c2cccc(-c3cc([C@]4(O)CCN(C)C4=O)on3)n2)n1 [Example 211, (R)-3-(3-(6-(2-((1-(Difluoromethyl)-3-methyl-1H-pyrazol-4-yl)amino)pyrimidin-4-yl)pyridin-2-yl)isoxazol-5-yl)-3-hydroxy-1-methylpyrrolidin-2-one] gave an IC50 of under 50 nM.
With CN1CC[C@@](O)(c2cc(-c3cccc(-c4ccnc(Nc5ncnc6c5COCC6)n4)n3)no2)C1=O [Example 310, (R)-3-(3-(6-(2-((7,8-Dihydro-5H-pyrano[4,3-d]pyrimidin-4-yl)amino)pyrimidin-4-yl)pyridin-2-yl)isoxazol-5-yl)-3-hydroxy-1-methylpyrrolidin-2-one] the IC50 was over 500 nM.
For CN1CC[C@@](O)(c2cc(-c3cccc(-c4ccnc(Nc5cnn(C6CNC6)c5)n4)n3)no2)C1=O [Example 215, (R)-3-(3-(6-(2-((1-(Azetidin-3-yl)-1H-pyrazol-4-yl)amino)pyrimidin-4-yl)pyridin-2-yl)isoxazol-5-yl)-3-hydroxy-1-methylpyrrolidin-2-one], the IC50 was over 500 nM.
Work on Cc1n[nH]cc1Nc1nccc(-c2cccc(-c3cc([C@]4(O)CCN(C)C4=O)on3)n2)n1 [Example 36, (R)-3-Hydroxy-1-methyl-3-(3-(6-(2-((3-methyl-1H-pyrazol-4-yl)amino)pyrimidin-4-yl)pyridin-2-yl)isoxazol-5-yl)pyrrolidin-2-one] yielded an IC50 of under 50 nM.
CN1CC[C@@](O)(c2cc(-c3cccc(-c4ccnc(Nc5ccc(-c6nncn6C)cn5)n4)n3)no2)C1=O [Example 308, (R)-3-Hydroxy-1-methyl-3-(3-(6-(2-((5-(4-methyl-4H-1,2,4-triazol-3-yl)pyridin-2-yl)amino)pyrimidin-4-yl)pyridin-2-yl)isoxazol-5-yl)pyrrolidin-2-one] showed an IC50 of 50 to 500 nM.
CN1CC[C@@](O)(c2cc(-c3cccc(-c4ccnc(Nc5ccnc6c5CCO6)n4)n3)no2)C1=O [Example 257, (R)-3-(3-(6-(2-((2,3-Dihydrofuro[2,3-b]pyridin-4-yl)amino)pyrimidin-4-yl)pyridin-2-yl)isoxazol-5-yl)-3-hydroxy-1-methylpyrrolidin-2-one] showed an IC50 of under 50 nM.
With C[C@H]1OCC[C@@H]1Nc1nccc(-c2cccc(-c3cc([C@]4(O)CCN(C)C4=O)on3)n2)n1 (single isomer, unassigned) [Example 346] the IC50 was 50 to 500 nM.
Compound CCn1ccc(Nc2nccc(-c3cccc(-c4cc([C@]5(O)CCN(C)C5=O)on4)n3)n2)n1 [Example 410, (R)-3-(3-(6-(2-((1-Ethyl-1H-pyrazol-3-yl)amino)pyrimidin-4-yl)pyridin-2-yl)isoxazol-5-yl)-3-hydroxy-1-methylpyrrolidin-2-one] has an IC50 of under 50 nM.
CN1CC[C@@](O)(c2cn(-c3cccc(-c4ccnc(Nc5cnn6ccccc56)n4)n3)nn2)C1=O [Example 121, (R)-3-Hydroxy-1-methyl-3-(1-(6-(2-(pyrazolo[1,5-a]pyridin-3-ylamino)pyrimidin-4-yl)pyridin-2-yl)-1H-1,2,3-triazol-4-yl)pyrrolidin-2-one] showed an IC50 of under 50 nM.
CN1CC[C@@](O)(c2cc(-c3cccc(-c4ccnc(Nc5nnc(C(F)F)o5)n4)n3)no2)C1=O [Example 324, (R)-3-(3-(6-(2-((5-(Difluoromethyl)-1,3,4-oxadiazol-2-yl)amino)pyrimidin-4-yl)pyridin-2-yl)isoxazol-5-yl)-3-hydroxy-1-methylpyrrolidin-2-one] gave an IC50 of over 500 nM.
CN1CC[C@@](O)(c2cn(-c3cccc(-c4ccnc(Nc5cnn6c5CCCC6)n4)n3)nn2)C1=O [Example 251, (R)-3-Hydroxy-1-methyl-3-(1-(6-(2-((4,5,6,7-tetrahydropyrazolo[1,5-a]pyridin-3-yl)amino)pyrimidin-4-yl)pyridin-2-yl)-1H-1,2,3-triazol-4-yl)pyrrolidin-2-one] was tested, and the IC50 was under 50 nM.
For CN1CC[C@@](O)(c2cc(-c3cccc(-c4ccnc(Nc5ccn(CCN)n5)n4)n3)no2)C1=O [Example 204, (R)-3-(3-(6-(2-((1-(2-Aminoethyl)-1H-pyrazol-3-yl)amino)pyrimidin-4-yl)pyridin-2-yl)isoxazol-5-yl)-3-hydroxy-1-methylpyrrolidin-2-one], the IC50 was 50 to 500 nM.
CN1CC[C@](O)(c2cn(-c3cccc(-c4ccnc(Nc5ccn(C)n5)n4)n3)cn2)C1=O (single isomer, unassigned) [Example 87] gave an IC50 of over 500 nM.
Cc1nocc1Nc1nccc(-c2cccc(-c3cc([C@]4(O)CCN(C)C4=O)on3)n2)n1 [Example 41, (R)-3-Hydroxy-1-methyl-3-(3-(6-(2-((3-methylisoxazol-4-yl)amino)pyrimidin-4-yl)pyridin-2-yl)isoxazol-5-yl)pyrrolidin-2-one] showed an IC50 of under 50 nM.
For CN1CC[C@@](O)(c2cc(-c3cccc(-c4ccnc(N[C@H]5CCSC5)n4)n3)no2)C1=O (single isomer, unassigned) [Example 457, (R)-3-Hydroxy-1-methyl-3-(3-(6-(2-(((*S)-tetrahydrothiophen-3-yl)amino)pyrimidin-4-yl)pyridin-2-yl)isoxazol-5-yl)pyrrolidin-2-one], the IC50 was 50 to 500 nM.
For CC1OCCn2ncc(Nc3nccc(-c4cccc(-c5cc([C@]6(O)CCN(C)C6=O)on5)n4)n3)c21 (single isomer, unassigned) [Example 195, (R)-3-Hydroxy-1-methyl-3-(3-(6-(2-(((*R)-4-methyl-6,7-dihydro-4H-pyrazolo[5,1-c][1,4]oxazin-3-yl)amino)pyrimidin-4-yl)pyridin-2-yl)isoxazol-5-yl)pyrrolidin-2-one], the IC50 was under 50 nM.
Work on CN1CC[C@](O)(c2nccn2-c2cccc(-c3ccnc(Nc4cnn(C)c4Cl)n3)n2)C1=O (single isomer, unassigned) [Example 106, (*S)-3-(1-(6-(2-((5-Chloro-1-methyl-1H-pyrazol-4-yl)amino)pyrimidin-4-yl)pyridin-2-yl)-1H-imidazol-2-yl)-3-hydroxy-1-methylpyrrolidin-2-one] yielded an IC50 of over 500 nM.
